One may read the IC50 as the point on the concentration scale where inhibition reaches its midpoint.

In one assay the target is human Chk2 kinase (Homo sapiens, UniProt O96017). The assay can be described thus: biochemical.
In a further assay the target is T1, human Chk1 kinase (Homo sapiens, UniProt O14757).
T1 sequence (O14757 1-476): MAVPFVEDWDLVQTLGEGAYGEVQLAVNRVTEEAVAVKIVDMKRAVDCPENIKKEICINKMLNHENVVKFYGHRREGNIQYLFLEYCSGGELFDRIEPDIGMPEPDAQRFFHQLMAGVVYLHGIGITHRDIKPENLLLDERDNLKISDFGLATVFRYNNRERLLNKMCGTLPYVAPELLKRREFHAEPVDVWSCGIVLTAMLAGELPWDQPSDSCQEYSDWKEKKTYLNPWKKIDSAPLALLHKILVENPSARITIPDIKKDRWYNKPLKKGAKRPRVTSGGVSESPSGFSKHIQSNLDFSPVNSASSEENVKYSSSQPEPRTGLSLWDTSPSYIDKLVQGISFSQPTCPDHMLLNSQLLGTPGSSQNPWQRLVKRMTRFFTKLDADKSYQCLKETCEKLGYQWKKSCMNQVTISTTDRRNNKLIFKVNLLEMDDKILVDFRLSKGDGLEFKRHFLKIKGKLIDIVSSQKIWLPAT
Description: biochemical.

human Chk2 kinase, sequence (O96017 whole entry): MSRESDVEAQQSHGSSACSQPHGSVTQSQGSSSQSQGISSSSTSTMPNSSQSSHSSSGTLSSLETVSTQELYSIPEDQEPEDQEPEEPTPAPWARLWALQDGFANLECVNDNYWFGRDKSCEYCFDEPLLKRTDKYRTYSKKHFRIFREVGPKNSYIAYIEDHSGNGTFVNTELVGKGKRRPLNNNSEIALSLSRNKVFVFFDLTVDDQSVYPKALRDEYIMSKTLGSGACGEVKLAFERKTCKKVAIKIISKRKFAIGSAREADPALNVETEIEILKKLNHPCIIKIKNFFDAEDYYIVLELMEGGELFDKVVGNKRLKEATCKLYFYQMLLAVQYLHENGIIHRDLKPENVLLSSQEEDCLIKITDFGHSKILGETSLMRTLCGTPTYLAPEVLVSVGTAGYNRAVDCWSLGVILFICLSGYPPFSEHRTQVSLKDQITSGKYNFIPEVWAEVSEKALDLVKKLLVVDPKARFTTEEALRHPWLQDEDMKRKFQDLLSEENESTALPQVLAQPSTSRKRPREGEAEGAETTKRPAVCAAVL

Turning to `CN1CC[C@H](N(C)c2ccc(-n3cnc(Nc4cnc(C#N)cn4)c3)cc2)C1` [Example 95, (S)-5-((1-(4-(Methyl(1-methylpyrrolidin-3-yl)amino)phenyl)-1H-imidazol-4-yl)amino)pyrazine-2-carbonitrile], the figures for the IC50 against human Chk2 kinase and on human Chk1 kinase were 10000 to 100000 nM and 31.6 to 100 nM, respectively.
The matching figures for `CN(C)CC1CN(c2cccc(-n3cnc(Nc4cnc(C#N)cn4)c3)c2)CCO1` (single isomer, unassigned) [Example 107, 5-((1-(3-(2-((Dimethylamino)methyl)morpholino)phenyl)-1H-imidazol-4-yl)amino)pyrazine-2-carbonitrile]: 10000 to 100000 nM and 31.6 to 100 nM.
The matching figures for `CN1C[C@H](F)[C@H](Oc2cccc(-n3cnc(Nc4cnc(C#N)cn4)c3)c2)C1` [Example 56, 5-((1-(3-(((3R,4S)-4-fluoro-1-methylpyrrolidin-3-yl)oxy)phenyl)-1H-imidazol-4-yl)amino)pyrazine-2-carbonitrile]: 10000 to 100000 nM and 100 to 316 nM.
Turning to `CN1C[C@@H]2C[C@H]1CN2c1ccc(-n2cnc(Nc3cnc(C#N)cn3)c2)cc1` [Example 10, 5-((1-(4-((1S,4S)-5-Methyl-2,5-diazabicyclo[2.2.1]heptan-2-yl)phenyl)-1H-imidazol-4-yl)amino)pyrazine-2-carbonitrile], the IC50 against human Chk2 kinase lay within 10000 to 100000 nM; on human Chk1 kinase, 10 to 31.6 nM.
With `CCN[C@H]1CN(c2ccc(-n3cnc(Nc4cnc(C#N)cn4)c3)cc2)C[C@H]1F` [Example 88, 5-((1-(4-((3S,4R)-3-(Ethylamino)-4-fluoropyrrolidin-1-yl)phenyl)-1H-imidazol-4-yl)amino)pyrazine-2-carbonitrile], the results for the half-inhibitory concentration (IC50) on human Chk2 kinase and at human Chk1 kinase were 1000 to 10000 nM and 10 to 31.6 nM, respectively.
On to `COc1cc(N2CC[C@@H](N3CCCC3)C2)ccc1-n1cnc(Nc2cnc(C#N)cn2)c1` [Example 51, (R)-5-((1-(4-([1,3′-Bipyrrolidin]-1′-yl)-2-methoxyphenyl)-1H-imidazol-4-yl)amino)pyrazine-2-carbonitrile], for which the IC50 was 1000 to 10000 nM against human Chk2 kinase and less than 10 nM at human Chk1 kinase.
The like results for `N#Cc1cnc(Nc2cn(-c3ccc(N4CC[C@@H](NCCC(F)(F)F)C4)cn3)cn2)cn1` [Example 93, (R)-5-((1-(5-(3-((3,3,3-Trifluoropropyl)amino)pyrrolidin-1-yl)pyridin-2-yl)-1H-imidazol-4-yl)amino)pyrazine-2-carbonitrile] were, in that order, greater than 100000 nM and 10 to 31.6 nM.
For `CN1C[C@@H]2CN(c3ccc(-n4cnc(Nc5cnc(C#N)cn5)c4)cc3)C[C@@H]2C1` [Example 101, 5-((1-(4-((3aR,6aS)-5-Methylhexahydropyrrolo[3,4-c]pyrrol-2(1H)-yl)phenyl)-1H-imidazol-4-yl)amino)pyrazine-2-carbonitrile], the IC50 against human Chk2 kinase is 10000 to 100000 nM; against human Chk1 kinase, less than 10 nM.
Turning to `CN(C)[C@@H]1CCN(c2ccc(-n3cnc(Nc4cnc(C#N)cn4)c3)nc2C(F)(F)F)C1` [Example 77, (R)-5-((1-(5-(3-(Dimethylamino)pyrrolidin-1-yl)-6-(trifluoromethyl)pyridin-2-yl)-1H-imidazol-4-yl)amino)pyrazine-2-carbonitrile], the IC50 was 10000 to 100000 nM on human Chk2 kinase and 10 to 31.6 nM against human Chk1 kinase.
The matching figures for `COc1cc(CN2CCCC2)ccc1-n1cnc(Nc2cnc(C#N)cn2)c1` [Example 171, 5-((1-(2-Methoxy-4-(pyrrolidin-1-ylmethyl)phenyl)-1H-imidazol-4-yl)amino)pyrazine-2-carbonitrile]: 10000 to 100000 nM and 10 to 31.6 nM.
On to `CN1C[C@H]2CN(c3ccc(-n4cnc(Nc5cnc(C#N)cn5)c4)c(F)c3)[C@H]2C1` [Example 81, 5-((1-(2-Fluoro-4-((1S,5R)-3-methyl-3,6-diazabicyclo[3.2.0]heptan-6-yl)phenyl)-1H-imidazol-4-yl)amino)pyrazine-2-carbonitrile], for which the results for the IC50 on human Chk2 kinase and on human Chk1 kinase were 1000 to 10000 nM and 31.6 to 100 nM, respectively.
For `N#Cc1cnc(Nc2cn(-c3ccc(N4CCC(N5CC(F)C5)C4)cc3)cn2)cn1` (single isomer, unassigned) [Example 130, 5-((1-(4-(3-(3-Fluoroazetidin-1-yl)pyrrolidin-1-yl)phenyl)-1H-imidazol-4-yl)amino)pyrazine-2-carbonitrile], the results for the half-maximal inhibitory concentration (IC50) against human Chk2 kinase and against human Chk1 kinase were 1000 to 10000 nM and 10 to 31.6 nM, respectively.
Take `Cc1cc(-n2cnc(Nc3cnc(C#N)cn3)c2)ccc1N1CCN(C)CC1` [Example 28, 5-((1-(3-Methyl-4-(4-methylpiperazin-1-yl)phenyl)-1H-imidazol-4-yl)amino)pyrazine-2-carbonitrile]: the IC50 against human Chk2 kinase was 10000 to 100000 nM; against human Chk1 kinase, 10 to 31.6 nM.
As to `CCN1CCN(c2ccc(-n3cnc(Nc4cnc(C#N)cn4)c3)c(OC)c2)CC1` [Example 27, 5-((1-(4-(4-Ethylpiperazin-1-yl)-2-methoxyphenyl)-1H-imidazol-4-yl)amino)pyrazine-2-carbonitrile], the IC50 is 1000 to 10000 nM against human Chk2 kinase and less than 10 nM against human Chk1 kinase.
Turning to `N#Cc1cnc(Nc2cn(-c3ccc(N4CC(F)(CN)C4)cc3)cn2)cn1` [Example 159, 5-((1-(4-(3-(Aminomethyl)-3-fluoroazetidin-1-yl)phenyl)-1H-imidazol-4-yl)amino)pyrazine-2-carbonitrile], the IC50 at human Chk2 kinase was 1000 to 10000 nM; against human Chk1 kinase it was 10 to 31.6 nM.
The like results for `CCNCc1ccc(-n2cnc(Nc3cnc(C#N)cn3)c2)c(OC)c1` [Example 170, 5-((1-(4-((Ethylamino)methyl)-2-methoxyphenyl)-1H-imidazol-4-yl)amino)pyrazine-2-carbonitrile] were, in that order, 10000 to 100000 nM and 10 to 31.6 nM.
`CN(C)[C@@H]1CCN(c2cccc(-n3cnc(Nc4cnc(C#N)cn4)c3)c2)C1` [Example 38, (R)-5-((1-(3-(3-(Dimethylamino)pyrrolidin-1-yl)phenyl)-1H-imidazol-4-yl)amino)pyrazine-2-carbonitrile]: the IC50 is 10000 to 100000 nM against human Chk2 kinase and 10 to 31.6 nM on human Chk1 kinase.
The matching figures for `CN1CC2(CCN2c2ccc(-n3cnc(Nc4cnc(C#N)cn4)c3)cc2)C1` [Example 99, 5-((1-(4-(6-Methyl-1,6-diazaspiro[3.3]heptan-1-yl)phenyl)-1H-imidazol-4-yl)amino)pyrazine-2-carbonitrile]: 10000 to 100000 nM and 10 to 31.6 nM.
Take `CN1CCC12CCN(c1ccc(-n3cnc(Nc4cnc(C#N)cn4)c3)cc1)C2` (single isomer, unassigned) [Example 127, 5-((1-(4-(1-Methyl-1,6-diazaspiro[3.4]octan-6-yl)phenyl)-1H-imidazol-4-yl)amino)pyrazine-2-carbonitrile]: the 50% inhibitory concentration (IC50) against human Chk2 kinase is greater than 100000 nM; against human Chk1 kinase, 10 to 31.6 nM.
Turning to `N#Cc1cnc(Nc2cn(-c3ccc(N4CC5(CCN5)C4)cc3)cn2)cn1` [Example 160, 5-((1-(4-(1,6-Diazaspiro[3.3]heptan-6-yl)phenyl)-1H-imidazol-4-yl)amino)pyrazine-2-carbonitrile], the IC50 fell in the range of 1000 to 10000 nM against human Chk2 kinase and 10 to 31.6 nM at human Chk1 kinase.
Consider `CCCN1CC(Oc2cccc(-n3cnc(Nc4cnc(C#N)cn4)c3)c2)C1` [Example 48, 5-((1-(3-((1-Propylazetidin-3-yl)oxy)phenyl)-1H-imidazol-4-yl)amino)pyrazine-2-carbonitrile], for which the half-inhibitory concentration (IC50) was greater than 100000 nM against human Chk2 kinase and 31.6 to 100 nM against human Chk1 kinase.
`COc1cc(N2CC3(CN(C)C3)C2)ccc1-n1cnc(Nc2cnc(C#N)cn2)c1` [Example 46, 5-((1-(2-Methoxy-4-(6-methyl-2,6-diazaspiro[3.3]heptan-2-yl)phenyl)-1H-imidazol-4-yl)amino)pyrazine-2-carbonitrile]: the IC50 was in the range of 10000 to 100000 nM on human Chk2 kinase and 10 to 31.6 nM against human Chk1 kinase.
Regarding `COc1cc(N2C[C@H]3CCN(C)[C@H]3C2)ccc1-n1cnc(Nc2cnc(C#N)cn2)c1` [Example 55, 5-((1-(2-Methoxy-4-((3aR,6aR)-1-methylhexahydropyrrolo[3,4-b]pyrrol-5(1H)-yl)phenyl)-1H-imidazol-4-yl)amino)pyrazine-2-carbonitrile], the IC50 against human Chk2 kinase lay in the range of 10000 to 100000 nM; against human Chk1 kinase, 10 to 31.6 nM.
The matching figures for `CN[C@H]1CN(c2ccc(-n3cnc(Nc4cnc(C#N)cn4)c3)c(OC)c2)C[C@H]1F` [Example 164, 5-((1-(4-((3R,4S)-3-Fluoro-4-(methylamino)pyrrolidin-1-yl)-2-methoxyphenyl)-1H-imidazol-4-yl)amino)pyrazine-2-carbonitrile]: 1000 to 10000 nM and less than 10 nM.
The like results for `C[C@@H]1CCN1C1CCN(c2ccc(-n3cnc(Nc4cnc(C#N)cn4)c3)cc2)C1` (single isomer, unassigned) [Example 136] were, in that order, greater than 100000 nM and 31.6 to 100 nM.
In the case of `CC(C)(C)N1CC(Oc2ccc(-n3cnc(Nc4cnc(C#N)cn4)c3)cc2)C1` [Example 45, 5-((1-(4-((1-(tert-Butyl)azetidin-3-yl)oxy)phenyl)-1H-imidazol-4-yl)amino)pyrazine-2-carbonitrile], the values for the IC50 against human Chk2 kinase and against human Chk1 kinase were 10000 to 100000 nM and 10 to 31.6 nM, respectively.
As for `N#Cc1cnc(Nc2cn(-c3ccc(CN4CCOCC4)cc3)cn2)cn1` [Example 142, 5-((1-(4-(Morpholinomethyl)phenyl)-1H-imidazol-4-yl)amino)pyrazine-2-carbonitrile], the values for the IC50 against human Chk2 kinase and on human Chk1 kinase were 10000 to 100000 nM and 100 to 316 nM, respectively.
For `CN(C)C1CCCN(c2ccc(-n3cnc(Nc4cnc(C#N)cn4)c3)cc2)C1` (single isomer, unassigned) [Example 121, 5-((1-(4-(3-(Dimethylamino)piperidin-1-yl)phenyl)-1H-imidazol-4-yl)amino)pyrazine-2-carbonitrile], the IC50 on human Chk2 kinase was greater than 100000 nM; against human Chk1 kinase, less than 10 nM.

(Values after patent US20260132140A1, “IMIDAZOLYL-AMINO-PYRAZINE-CARBONITRILS AS CHK-1 INHIBITORS” (BenevolentAI Bio Limited, priority 2022, published 2026).)
